Laboratory results from patent US11274103B2, “Compounds for the modulation of MYC activity” (Syros Pharmaceuticals, Inc., priority 2016, dated 2022).
Structures can show the parent of a compound that is named as a salt.

What follows are molecules tested against T1, c-Myc/Max/Ebox DNA (Homo sapiens, UniProt P01106) (assay: c-Myc/Max/Ebox DNA AlphaScreen Assay). Conditions: calculated IC50; free c-Myc 20 nM, his6-Max 5 nM, biotinylated Ebox oligo 10 nM; 2 hour incubation.
T1 construct: his6 (cleaved yes)
Assay type: binding
Method: Compounds of the invention were assayed for c-Myc/Max/EBox activity as described in the following protocol. Human his6-c-Myc and his6-Max were used with biotinylated DNA containing a single Ebox sequence (biotin[…] (SEQ ID NO: 1)) purchased from MWG Operon. Free c-Myc was generated from his6-c-Myc through thrombin cleavage of the his6 tag (SEQ ID NO: 2). For 384-well plate assays, 10 μL of a 2× solution of free c-Myc (20 nM final), Ni^2+ coated Acceptor Beads (25 μg/ml final), and biotinylated Ebox oligo (10 nM final) were added to 384-well plates with a Biotek EL406 liquid handler. 50 nL of compounds from stock plates were added by pin transfer using a Janus Workstation (PerkinElmer), allowing the compounds to interact with c-Myc prior to c-Myc binding with Max. In the current assay, DMSO was not allowed to exceed 2% v/v of the assay. 10 μl of 2× master mix containing streptavidin-coated donor beads (25 μg/ml final) and his6-Max (5 nM) were added. AlphaScreen measurements were performed on an Envision plate reader (PerkinElmer) utilizing the manufacturer's protocol.
Both master mixes were made in room temperature assay buffer (50 mM HEPES, 150 mM NaCl, 0.2% w/v BSA, 0.02% w/v Tween20, 40 μg/ml glycogen, 500 μM DTT, pH 8.0, wherein both DTT and glycogen were added fresh). Alpha beads were added to respective master solutions. All subsequent steps were performed in low light conditions. Solution 1: 2× solution of components with final concentrations of c-Myc Ni-coated Acceptor Beads (25 μg/ml), and biotinylated Ebox oligo (10 nM). Solution 2: 2× solution of streptavidin-coated donor beads (25 μg/ml final) and his6-Max 10 μL. Solution 1 was added to 384-well plate (AlphaPlate-384, PerkinElmer) with Biotek EL406 liquid handler and the plates were centrifuged very briefly. 50 nL of compounds from stock plates were added by pin transfer using a Janus Workstation. Solution 2 (10 μL) was added with the liquid handler. Plates were sealed with foil to block light exposure and prevent evaporation. Plates were very briefly centrifuged followed by 2 hour incubation. AlphaScreen measurements were performed on an Envision 2104 utilizing the manufacturer's protocol. Excitation was at 680 nm for donor bead release of singlet oxygen and emission was read with a bandpass filter from 520-620 nm. Glycogen: Roche Diagnostics #10901393001. Plate 1536: Perkin Elmer, 6004350. Plate 384: Perkin Elmer, 6005350. Nickel-His Alpha Beads: 6760619R. The data from this assay are summarized in Table 2 below (Myc/Max/DNA Activity), where “A” represents a calculated IC50 of less than 500 nM; “B” represents a calculated IC50 of between 500 nM and 5 μM; “C” represents a calculated IC50 of between 5 μM and 10 μM; “D” represents a value of greater than 10 μM, and “NT” represents a compound for which an assay result was not obtained.

T1 sequence (P01106 whole entry): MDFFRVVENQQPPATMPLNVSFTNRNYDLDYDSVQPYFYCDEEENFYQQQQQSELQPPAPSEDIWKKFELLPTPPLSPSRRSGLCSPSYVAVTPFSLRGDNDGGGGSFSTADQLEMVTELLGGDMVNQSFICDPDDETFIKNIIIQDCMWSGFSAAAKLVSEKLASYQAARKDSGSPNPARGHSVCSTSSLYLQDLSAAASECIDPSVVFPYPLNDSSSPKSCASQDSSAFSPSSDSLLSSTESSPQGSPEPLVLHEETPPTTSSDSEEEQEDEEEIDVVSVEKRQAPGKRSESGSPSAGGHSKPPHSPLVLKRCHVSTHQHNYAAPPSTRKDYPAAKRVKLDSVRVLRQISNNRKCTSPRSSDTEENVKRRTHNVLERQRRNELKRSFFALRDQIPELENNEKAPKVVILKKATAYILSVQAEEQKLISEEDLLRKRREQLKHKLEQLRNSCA

| SMILES | IC50 [nM] |
| --- | --- |
| CC(=O)Nc1sc2c(c1-c1nc(-c3ccccc3)cs1)CCNC2 [Compound 100, N-(3-(4-phenylthiazol-2-yl)-4,5,6,7-tetrahydrothieno[2,3-c]pyridin-2-yl)acetamide] | > 10000 |
| CC(C)NCCC(=O)Nc1sc2c(c1-c1nc(C(=O)O)cs1)CCNC2 [Compound 101, 2-(2-(3-(isopropylamino)propanamido)-4,5,6,7-tetrahydrothieno[2,3-c]pyridin-3-yl)thiazole-4-carboxylic acid] | 500 to 5000 |
| COCCNCCC(=O)Nc1sc2c(c1-c1nc(-c3ccccn3)cs1)CCNC2 [Compound 110] | 500 to 5000 |
| CC(C)NCCC(=O)Nc1sc2c(c1-c1nc(C(=O)Nc3ccccc3)cs1)CCNC2 [Compound 113, 2-(2-(3-(isopropylamino)propanamido)-4,5,6,7-tetrahydrothieno[2,3-c]pyridin-3-yl)-N-phenylthiazole-4-carboxamide] | > 10000 |
| Cc1cn(-c2csc(-c3c(NC(=O)CCNC(C)C)sc4c3CCNC4)n2)cn1 [Compound 117] | 500 to 5000 |
| Cc1ccncc1-c1csc(-c2c(NC(=O)CCNC(C)C)sc3c2CCNC3)n1 [Compound 123] | 500 to 5000 |
| COc1ncccc1-c1csc(-c2c(NC(=O)CCNC(C)C)sc3c2CCNC3)n1 [Compound 127] | < 500 |
| CC(C)NCCC(=O)Nc1sc2c(c1-c1nc(-c3cncnc3)cs1)CCNC2 [Compound 128] | < 500 |
| CC(C)NCCC(=O)Nc1sc2c(c1-c1nc(-c3ccc[nH]c3=O)cs1)CCNC2 [Compound 129] | < 500 |
| CC(C)NCCC(=O)Nc1sc2c(c1-c1nc(C3=CCOCC3)cs1)CCNC2 [Compound 130, N-(3-(4-(3,6-Dihydro-2H-pyran-4-yl)thiazol-2-yl)-4,5,6,7-tetrahydrothieno[2,3-c]pyridin-2-yl)-3-(isopropylamino)propanamide dihydrochloride] | 500 to 5000 |

The next lines start with the values.

| IC50 [nM] | SMILES |
| --- | --- |
| < 500 | CC(C)NCCC(=O)Nc1sc2c(c1-c1nc(-c3cccnc3)cs1)CCNC2 [Compound 103] |
| < 500 | CC(C)NCCC(=O)Nc1sc2c(c1-c1nc(-c3ccccn3)cs1)CCNC2 [Compound 104, 3-(Isopropylamino)-N-(3-(4-(pyridin-2-yl)thiazol-2-yl)-4,5,6,7-tetrahydrothieno[2,3-c]pyridin-2-yl)propanamide] |
| < 500 | CC(C)NCCC(=O)Nc1sc2c(c1-c1nc(-c3cnn(C)c3)cs1)CCNC2 [Compound 114] |
| < 500 | CC(C)NCCC(=O)Nc1sc2c(c1-c1nc(-c3cncc(F)c3)cs1)CCNC2 [Compound 115] |
| < 500 | COc1cncc(-c2csc(-c3c(NC(=O)CCNC(C)C)sc4c3CCNC4)n2)c1 [Compound 119] |
| < 500 | Cc1cncc(-c2csc(-c3c(NC(=O)CCNC(C)C)sc4c3CCNC4)n2)c1 [Compound 122] |
| < 500 | CC(C)NCCC(=O)Nc1sc2c(c1-c1nc(C(=O)Nc3cccnc3)cs1)CCNC2 [Compound 124, 2-(2-(3-(Isopropylamino)propanamido)-4,5,6,7-tetrahydrothieno[2,3-c]pyridin-3-yl)-N-(pyridin-3-yl)thiazole-4-carboxamide] |
| < 500 | CC(C)NCCC(=O)Nc1sc2c(c1-c1nc(C3=CCNCC3)cs1)CCNC2 [Compound 126] |
